# Entries after “also recorded” stand apart in the source; their conditions may differ. Read-outs that look alike come from different tables or passages of the source.
# Key:
# [1] = Conditioned place preference (CPP)
# Source text: This test exploits the tendency of rats to associate the environment where they are located with the effect of drugs administered during a conditioning period. The experiment was done in a wooden apparatus consisting of two lateral chambers (30×25 cm, length×width) with different visual and tactile properties and a central “neutral” chamber, smaller than the others (12×25 cm, length×width) with total white floor and walls. The lateral chambers had different decoration of walls (points or stripes) and different type of floor (smooth or rough). These differences can be recognized by rats, and thus associated with the effect of drug or vehicle treatment. All walls were 38.5 cm high. Four days before the preconditioning phase, the light/dark cycle was inverted; all phases of experiments were performed during the dark phase. On the preconditioning day (day 1), Wistar rats (Charles River) were placed in the neutral chamber and for 15 min they were free to explore all the environments of the apparatus (van der Kam E. L. et al. Pain, 2008, 136:373-379). The time spent in each chamber was recorded with a video tracking software (Ethovision XT 13, Noldus information technology). Rats that spent over 60% of time in one of two lateral chambers were not admitted to the conditioning phase: for admitted animals, the “preferred” chamber was therefore the one where a rat spent between 50% and 60% of time during preconditioning (while the “unpreferred” chamber was the opposite one). After preconditioning, rats were randomly assigned to the experimental groups (n=16). A total of 256 rats were used in this model. During the 2 days of the conditioning phase rats were treated with the test drug(s) (day 2) or vehicle (day 3). On the first conditioning day rats were treated with the test drug(s) and were confined in the preconditioning unpreferred lateral chamber (now defined paired chamber), with no access to the other chambers of the apparatus for 40 min. On the second day of conditioning rats were treated with vehicle and were located in the opposite chamber (unpaired chamber). The control group received vehicle in both chambers. CR4056 or its vehicle were administered 40 min before conditioning, whereas morphine or its vehicle were administered immediately before conditioning. There was no treatment on the test day (day 4), when rats were placed in the neutral chamber with the possibility to explore all chambers of the apparatus. The time spent in each chamber was recorded.
# CR4056 (1 mg/kg) and morphine (1 mg/kg) alone or in co-administration were administered every other day. After 8 days of conditioning the test day was held as described above.
# [2] = Open field test (distance travelled, sedation)
# Method: The so-called open field test was used as a first model and the experiments were performed according to the procedure described by Haleem and Nawaz (Pain, 2017, 18:19-28). Drugs were administered 60 min (CR4056 or its vehicle, p.o.) and 30 min (morphine or its vehicle, s.c.) before the open field test. The video tracking was performed using the software Ethovision XT 13 (Noldus Information Technology), to assess the “distance travelled” as the primary parameter of sedation in this model. The test was performed every day after 4 days of repeated treatment.
# Sedation rating scale = type: in vivo, rat
# Source text: In addition, sedation was scored before each rotarod testing by the sedation rating scale. […] At each time point, a score from 0 (maximum sedation) to 5 (absent sedation) was assigned to each of the 8 parameters. The sum of the scores produced the total score.
# [3] = Opioid-induced constipation (faecal number 16 h after drug treatment)
# Method: The experiments were conducted according to the procedure described by Harada et al. (J. Pharmacol. Exp. Ther. 2017, 362: 78-84). Wistar rats were used in this model. Fecal excretion was evaluated at the end of the dark phase of the light/dark cycle, when most activities and feeding of albino rats take place. Drugs were administered 2 h before the dark phase of the light/dark cycle, and the feces were collected and counted 16 h after drug treatment. In this experimental paradigm, CR4056 1 or 6 mg/kg was administered orally 15 min before morphine or codeine. A full analgesic dose of morphine (10 mg/kg subcutaneous) or codeine (12 mg/kg oral) were administered 15 minutes after CR4056 or vehicle.
# [4] = Inflammatory pain induced by complete Freund adjuvant (CFA); type: in vivo, rat; conditions: CR4056 1 mg/kg alone; FIG. 1, described as known effects
# Source text: Previous art in the scientific literature describes that imidazoline I2 receptor agonists potentiate morphine-induced analgesia.
# [5] = single administration, Morphine 1 mg/Kg
# [6] = single administration, Morphine 2.5 mg/Kg
# [7] = single administration, Morphine 5 mg/Kg
# [8] = morphine 1 mg/kg alone vs control rats
compound,measurement,setting,value
"CN1CC[C@]23c4c5ccc(O)c4O[C@H]2[C@@H](O)C=C[C@H]3[C@H]1C5 [Morphine, morphine]",preference for the paired chamber,"[1]; acute administration, morphine 1 mg/kg",did not induce preference
same,preference for the paired chamber (time paired vs unpaired),"[1]; acute administration, morphine 2.5 mg/kg",induced a statistically significant difference
same,preference for the paired chamber (time paired vs unpaired),"[1]; acute administration, morphine 5 mg/kg",induced a statistically significant difference
same,%(P − U),"[1]; repeated administrations, 8 days of conditioning, Morphine 1 mg/kg",+14%
same,Δ(P − U) ± ES,"[1]; repeated administrations, 8 days of conditioning, Morphine 1 mg/kg, (*) paired t-test < 0.05",95 ± 17 (*)
same,Seconds in Unpaired chamber (U),"[1]; repeated administrations, every other day, 8 days of conditioning, Morphine 1 mg/kg",295 s
same,preference for the paired chamber,"[1]; repeated conditionings, morphine 1 mg/kg alone",induced preference
same,%(P − U),[1]; [5],1.2%
same,Seconds in Unpaired chamber (U),[1]; [5],341 s
same,Δ(P − U) ± ES,[1]; [5],7.6 ± 9.4
same,%(P − U),[1]; [6],17.1%
same,Seconds in Unpaired chamber (U),[1]; [6],291 s
same,%(P − U),[1]; [7],20.2%
same,Seconds in Unpaired chamber (U),[1]; [7],266 s
same,locomotor activity (sensitization),"[2]; morphine 1-2.5 mg/kg, increased locomotor activity over 4 days of repeated treatment",modest sensitization
same,locomotor activity (sedation),"[2]; morphine s.c. at doses higher than 5 mg/kg, 4 days of repeated treatment",clear sedative effect
same,locomotor activity (sedation),"[2]; morphine s.c., lower doses (not higher than 5 mg/kg)",not sedative
same,rotarod performance,[8],no significant changes in performance
same,rotarod performance,morphine 10 mg/kg vs controls,clearly sedative
same,sedation scores,Sedation rating scale; [8],no significant changes in performance
same,sedation scores,Sedation rating scale; morphine 10 mg/kg vs controls,clearly sedative
same,faecal number,"[3]; morphine 10 mg/kg subcutaneous, 16 h, P<0.05 vs vehicle",significant decrease in faecal number; also recorded: significantly reduced faecal count
"COc1ccc2c3c1O[C@H]1[C@@H](O)C=C[C@H]4[C@@H](C2)N(C)CC[C@@]341 [Codeine, codeine]",defecation (faecal number),"[3]; codeine 12 mg/kg oral, 16 h after treatment, vs vehicle or CR4056",significant decrease in defecation
"c1ccc(-c2ncc3cc(-n4ccnc4)ccc3n2)cc1 [CR4056, 2-phenyl-6-(1H-imidazol-1-yl) quinazoline]",place preference,"[1]; rat, in vivo, 6 mg/kg",did not induce place preference
same,locomotor activity (sedation),"[2]; in vivo, po, 1 mg/kg",not sedative per se
same,analgesic effect,[4],non-analgesic

# — patent US20230000868A1, “USE OF 2-PHENYL-6-(1H-IMIDAZOL-1-YL) QUINAZOLINE FOR THE PREVENTION OF ABUSE AND OF SIDE EFFECTS OF AT LEAST ONE OPIOID” (ROTTAPHARM BIOTECH S.R.L., priority 2019, published 2023)
